# Reference: ChEMBL document CHEMBL4627246, “Pyroglutamide-Based P2X7 Receptor Antagonists Targeting Inflammatory Bowel Disease” (J Med Chem, 2020)
# Test system: HOP-92
# Test: Cytotoxicity against human HOP92 cells assessed as effect on cell growth at 10 uM incubated for 48 hrs by sulforhodamine B assay
# Format: cell-based
# Conditions: hop-92, 48 h
row,SMILES,Activity
1,CCCCCCN1C(=O)[C@@H]2C/C(=C\N(C)C)C(=O)N2C1N(C)C (stereo not given in full),Non-Toxic
2,O=C(NCc1ccc(Cl)cc1Cl)[C@@H]1CCC(=O)N1c1ccccc1,Non-Toxic
3,COc1ccc(CN2C(=O)[C@@H]3C/C(=C\N(C)C)C(=O)N3C2N(C)C)c(OC)c1 (stereo not given in full),Non-Toxic
4,O=C(NCCc1ccccc1)[C@@H]1CCC(=O)N1Cc1ccc(Br)cc1,Non-Toxic

# Test system: NCI-H23
# Test: Cytotoxicity against human NCI-H23 cells assessed as effect on cell growth at 10 uM incubated for 48 hrs by sulforhodamine B assay
# Format: cell-based
# Conditions: nci-h23, 48 h
row,SMILES,Activity
1,CCCCCCN1C(=O)[C@@H]2C/C(=C\N(C)C)C(=O)N2C1N(C)C (stereo not given in full),Non-Toxic
2,O=C(NCc1ccc(Cl)cc1Cl)[C@@H]1CCC(=O)N1c1ccccc1,Non-Toxic
3,COc1ccc(CN2C(=O)[C@@H]3C/C(=C\N(C)C)C(=O)N3C2N(C)C)c(OC)c1 (stereo not given in full),Non-Toxic
4,O=C(NCCc1ccccc1)[C@@H]1CCC(=O)N1Cc1ccc(Br)cc1,Non-Toxic

# Test system: NCI-H322M
# Test: Cytotoxicity against human NCI-H322M cells assessed as effect on cell growth at 10 uM incubated for 48 hrs by sulforhodamine B assay
# Format: cell-based
# Conditions: not given
row,SMILES,Activity
1,CCCCCCN1C(=O)[C@@H]2C/C(=C\N(C)C)C(=O)N2C1N(C)C (stereo not given in full),Non-Toxic
2,O=C(NCc1ccc(Cl)cc1Cl)[C@@H]1CCC(=O)N1c1ccccc1,Non-Toxic
3,COc1ccc(CN2C(=O)[C@@H]3C/C(=C\N(C)C)C(=O)N3C2N(C)C)c(OC)c1 (stereo not given in full),Non-Toxic
4,O=C(NCCc1ccccc1)[C@@H]1CCC(=O)N1Cc1ccc(Br)cc1,Non-Toxic

# Test system: NCI-H522
# Test: Cytotoxicity against human NCI-H522 cells assessed as effect on cell growth at 10 uM incubated for 48 hrs by sulforhodamine B assay
# Format: cell-based
# Conditions: nci-h522, 48 h
row,SMILES,Activity
1,CCCCCCN1C(=O)[C@@H]2C/C(=C\N(C)C)C(=O)N2C1N(C)C (stereo not given in full),Non-Toxic
2,O=C(NCc1ccc(Cl)cc1Cl)[C@@H]1CCC(=O)N1c1ccccc1,Non-Toxic
3,COc1ccc(CN2C(=O)[C@@H]3C/C(=C\N(C)C)C(=O)N3C2N(C)C)c(OC)c1 (stereo not given in full),Non-Toxic
4,O=C(NCCc1ccccc1)[C@@H]1CCC(=O)N1Cc1ccc(Br)cc1,Non-Toxic

# Test system: COLO 205
# Test: Cytotoxicity against human COLO205 cells assessed as effect on cell growth at 10 uM incubated for 48 hrs by sulforhodamine B assay
# Format: cell-based
# Conditions: colo 205, 48 h
row,SMILES,Activity
1,CCCCCCN1C(=O)[C@@H]2C/C(=C\N(C)C)C(=O)N2C1N(C)C (stereo not given in full),Non-Toxic
2,O=C(NCc1ccc(Cl)cc1Cl)[C@@H]1CCC(=O)N1c1ccccc1,Non-Toxic
3,COc1ccc(CN2C(=O)[C@@H]3C/C(=C\N(C)C)C(=O)N3C2N(C)C)c(OC)c1 (stereo not given in full),Non-Toxic
4,O=C(NCCc1ccccc1)[C@@H]1CCC(=O)N1Cc1ccc(Br)cc1,Non-Toxic

# Test system: HCC 2998
# Test: Cytotoxicity against human HCC2998 cells assessed as effect on cell growth at 10 uM incubated for 48 hrs by sulforhodamine B assay
# Format: cell-based
# Conditions: hcc 2998, 48 h
row,SMILES,Activity
1,CCCCCCN1C(=O)[C@@H]2C/C(=C\N(C)C)C(=O)N2C1N(C)C (stereo not given in full),Non-Toxic
2,O=C(NCc1ccc(Cl)cc1Cl)[C@@H]1CCC(=O)N1c1ccccc1,Non-Toxic
3,COc1ccc(CN2C(=O)[C@@H]3C/C(=C\N(C)C)C(=O)N3C2N(C)C)c(OC)c1 (stereo not given in full),Non-Toxic
4,O=C(NCCc1ccccc1)[C@@H]1CCC(=O)N1Cc1ccc(Br)cc1,Non-Toxic

# Test system: HCT-116
# Test: Cytotoxicity against human HCT116 cells assessed as effect on cell growth at 10 uM incubated for 48 hrs by sulforhodamine B assay
# Format: cell-based
# Conditions: hct-116, 48 h
row,SMILES,Activity
1,CCCCCCN1C(=O)[C@@H]2C/C(=C\N(C)C)C(=O)N2C1N(C)C (stereo not given in full),Non-Toxic
2,O=C(NCc1ccc(Cl)cc1Cl)[C@@H]1CCC(=O)N1c1ccccc1,Non-Toxic
3,COc1ccc(CN2C(=O)[C@@H]3C/C(=C\N(C)C)C(=O)N3C2N(C)C)c(OC)c1 (stereo not given in full),Non-Toxic
4,O=C(NCCc1ccccc1)[C@@H]1CCC(=O)N1Cc1ccc(Br)cc1,Non-Toxic

# Test system: HT-29
# Test: Cytotoxicity against human HT-29 cells assessed as effect on cell growth at 10 uM incubated for 48 hrs by sulforhodamine B assay
# Format: cell-based
# Conditions: ht-29, 48 h
row,SMILES,Activity
1,CCCCCCN1C(=O)[C@@H]2C/C(=C\N(C)C)C(=O)N2C1N(C)C (stereo not given in full),Non-Toxic
2,O=C(NCc1ccc(Cl)cc1Cl)[C@@H]1CCC(=O)N1c1ccccc1,Non-Toxic
3,COc1ccc(CN2C(=O)[C@@H]3C/C(=C\N(C)C)C(=O)N3C2N(C)C)c(OC)c1 (stereo not given in full),Non-Toxic
4,O=C(NCCc1ccccc1)[C@@H]1CCC(=O)N1Cc1ccc(Br)cc1,Non-Toxic

# Test system: SNB-19
# Test: Cytotoxicity against human SNB19 cells assessed as effect on cell growth at 10 uM incubated for 48 hrs by sulforhodamine B assay
# Format: cell-based
# Conditions: snb-19, 48 h
row,SMILES,Activity
1,CCCCCCN1C(=O)[C@@H]2C/C(=C\N(C)C)C(=O)N2C1N(C)C (stereo not given in full),Non-Toxic
2,O=C(NCc1ccc(Cl)cc1Cl)[C@@H]1CCC(=O)N1c1ccccc1,Non-Toxic
3,COc1ccc(CN2C(=O)[C@@H]3C/C(=C\N(C)C)C(=O)N3C2N(C)C)c(OC)c1 (stereo not given in full),Non-Toxic
4,O=C(NCCc1ccccc1)[C@@H]1CCC(=O)N1Cc1ccc(Br)cc1,Non-Toxic

# Test system: SNB-75
# Test: Cytotoxicity against human SNB75 cells assessed as effect on cell growth at 10 uM incubated for 48 hrs by sulforhodamine B assay
# Format: cell-based
# Conditions: snb-75, 48 h
row,SMILES,Activity
1,CCCCCCN1C(=O)[C@@H]2C/C(=C\N(C)C)C(=O)N2C1N(C)C (stereo not given in full),Non-Toxic
2,O=C(NCc1ccc(Cl)cc1Cl)[C@@H]1CCC(=O)N1c1ccccc1,Non-Toxic
3,COc1ccc(CN2C(=O)[C@@H]3C/C(=C\N(C)C)C(=O)N3C2N(C)C)c(OC)c1 (stereo not given in full),Non-Toxic
4,O=C(NCCc1ccccc1)[C@@H]1CCC(=O)N1Cc1ccc(Br)cc1,Non-Toxic

# Test system: U-251
# Test: Cytotoxicity against human U251 cells assessed as effect on cell growth at 10 uM incubated for 48 hrs by sulforhodamine B assay
# Format: cell-based
# Conditions: u-251, 48 h
row,SMILES,Activity
1,CCCCCCN1C(=O)[C@@H]2C/C(=C\N(C)C)C(=O)N2C1N(C)C (stereo not given in full),Non-Toxic
2,O=C(NCc1ccc(Cl)cc1Cl)[C@@H]1CCC(=O)N1c1ccccc1,Non-Toxic
3,COc1ccc(CN2C(=O)[C@@H]3C/C(=C\N(C)C)C(=O)N3C2N(C)C)c(OC)c1 (stereo not given in full),Non-Toxic
4,O=C(NCCc1ccccc1)[C@@H]1CCC(=O)N1Cc1ccc(Br)cc1,Non-Toxic

# Test system: Malme-3M
# Test: Cytotoxicity against human MALME-3M cells assessed as effect on cell growth at 10 uM incubated for 48 hrs by sulforhodamine B assay
# Format: cell-based
# Conditions: not given
row,SMILES,Activity
1,CCCCCCN1C(=O)[C@@H]2C/C(=C\N(C)C)C(=O)N2C1N(C)C (stereo not given in full),Non-Toxic
2,O=C(NCc1ccc(Cl)cc1Cl)[C@@H]1CCC(=O)N1c1ccccc1,Non-Toxic
3,COc1ccc(CN2C(=O)[C@@H]3C/C(=C\N(C)C)C(=O)N3C2N(C)C)c(OC)c1 (stereo not given in full),Non-Toxic
4,O=C(NCCc1ccccc1)[C@@H]1CCC(=O)N1Cc1ccc(Br)cc1,Non-Toxic

# Test system: UACC-62
# Test: Cytotoxicity against human UACC62 cells assessed as effect on cell growth at 10 uM incubated for 48 hrs by sulforhodamine B assay
# Format: cell-based
# Conditions: uacc-62, 48 h
row,SMILES,Activity
1,CCCCCCN1C(=O)[C@@H]2C/C(=C\N(C)C)C(=O)N2C1N(C)C (stereo not given in full),Non-Toxic
2,O=C(NCc1ccc(Cl)cc1Cl)[C@@H]1CCC(=O)N1c1ccccc1,Non-Toxic
3,COc1ccc(CN2C(=O)[C@@H]3C/C(=C\N(C)C)C(=O)N3C2N(C)C)c(OC)c1 (stereo not given in full),Non-Toxic
4,O=C(NCCc1ccccc1)[C@@H]1CCC(=O)N1Cc1ccc(Br)cc1,Non-Toxic

# Test system: IGROV-1
# Test: Cytotoxicity against human IGROV1 cells assessed as effect on cell growth at 10 uM incubated for 48 hrs by sulforhodamine B assay
# Format: cell-based
# Conditions: igrov-1, 48 h
row,SMILES,Activity
1,CCCCCCN1C(=O)[C@@H]2C/C(=C\N(C)C)C(=O)N2C1N(C)C (stereo not given in full),Non-Toxic
2,O=C(NCc1ccc(Cl)cc1Cl)[C@@H]1CCC(=O)N1c1ccccc1,Non-Toxic
3,COc1ccc(CN2C(=O)[C@@H]3C/C(=C\N(C)C)C(=O)N3C2N(C)C)c(OC)c1 (stereo not given in full),Non-Toxic
4,O=C(NCCc1ccccc1)[C@@H]1CCC(=O)N1Cc1ccc(Br)cc1,Non-Toxic

# Test system: OVCAR-8
# Test: Cytotoxicity against human OVCAR8 cells assessed as effect on cell growth at 10 uM incubated for 48 hrs by sulforhodamine B assay
# Format: cell-based
# Conditions: ovcar-8, 48 h
row,SMILES,Activity
1,CCCCCCN1C(=O)[C@@H]2C/C(=C\N(C)C)C(=O)N2C1N(C)C (stereo not given in full),Non-Toxic
2,O=C(NCc1ccc(Cl)cc1Cl)[C@@H]1CCC(=O)N1c1ccccc1,Non-Toxic
3,COc1ccc(CN2C(=O)[C@@H]3C/C(=C\N(C)C)C(=O)N3C2N(C)C)c(OC)c1 (stereo not given in full),Non-Toxic
4,O=C(NCCc1ccccc1)[C@@H]1CCC(=O)N1Cc1ccc(Br)cc1,Non-Toxic

# Test system: NCI/ADR-RES
# Test: Cytotoxicity against human NCI/ADR-RES cells assessed as effect on cell growth at 10 uM incubated for 48 hrs by sulforhodamine B assay
# Format: cell-based
# Conditions: not given
row,SMILES,Activity
1,CCCCCCN1C(=O)[C@@H]2C/C(=C\N(C)C)C(=O)N2C1N(C)C (stereo not given in full),Non-Toxic
2,O=C(NCc1ccc(Cl)cc1Cl)[C@@H]1CCC(=O)N1c1ccccc1,Non-Toxic
3,COc1ccc(CN2C(=O)[C@@H]3C/C(=C\N(C)C)C(=O)N3C2N(C)C)c(OC)c1 (stereo not given in full),Non-Toxic
4,O=C(NCCc1ccccc1)[C@@H]1CCC(=O)N1Cc1ccc(Br)cc1,Non-Toxic

# Test system: TK-10
# Test: Cytotoxicity against human TK10 cells assessed as effect on cell growth at 10 uM incubated for 48 hrs by sulforhodamine B assay
# Format: cell-based
# Conditions: tk-10, 48 h
row,SMILES,Activity
1,CCCCCCN1C(=O)[C@@H]2C/C(=C\N(C)C)C(=O)N2C1N(C)C (stereo not given in full),Non-Toxic
2,O=C(NCc1ccc(Cl)cc1Cl)[C@@H]1CCC(=O)N1c1ccccc1,Non-Toxic
3,COc1ccc(CN2C(=O)[C@@H]3C/C(=C\N(C)C)C(=O)N3C2N(C)C)c(OC)c1 (stereo not given in full),Non-Toxic
4,O=C(NCCc1ccccc1)[C@@H]1CCC(=O)N1Cc1ccc(Br)cc1,Non-Toxic

# Test system: PC-3
# Test: Cytotoxicity against human PC3 cells assessed as effect on cell growth at 10 uM incubated for 48 hrs by sulforhodamine B assay
# Format: cell-based
# Conditions: pc-3, 48 h
row,SMILES,Activity
1,CCCCCCN1C(=O)[C@@H]2C/C(=C\N(C)C)C(=O)N2C1N(C)C (stereo not given in full),Non-Toxic
2,O=C(NCc1ccc(Cl)cc1Cl)[C@@H]1CCC(=O)N1c1ccccc1,Non-Toxic
3,COc1ccc(CN2C(=O)[C@@H]3C/C(=C\N(C)C)C(=O)N3C2N(C)C)c(OC)c1 (stereo not given in full),Non-Toxic
4,O=C(NCCc1ccccc1)[C@@H]1CCC(=O)N1Cc1ccc(Br)cc1,Non-Toxic

# Test system: T47D
# Test: Cytotoxicity against human T47D cells assessed as effect on cell growth at 10 uM incubated for 48 hrs by sulforhodamine B assay
# Format: cell-based
# Conditions: not given
row,SMILES,Activity
1,CCCCCCN1C(=O)[C@@H]2C/C(=C\N(C)C)C(=O)N2C1N(C)C (stereo not given in full),Non-Toxic
2,O=C(NCc1ccc(Cl)cc1Cl)[C@@H]1CCC(=O)N1c1ccccc1,Non-Toxic
3,COc1ccc(CN2C(=O)[C@@H]3C/C(=C\N(C)C)C(=O)N3C2N(C)C)c(OC)c1 (stereo not given in full),Non-Toxic
4,O=C(NCCc1ccccc1)[C@@H]1CCC(=O)N1Cc1ccc(Br)cc1,Non-Toxic

# Test system: MDA-MB-468
# Test: Cytotoxicity against human MDA-MB-468 cells assessed as effect on cell growth at 10 uM incubated for 48 hrs by sulforhodamine B assay
# Format: cell-based
# Conditions: mda-mb-468, 48 h
row,SMILES,Activity
1,CCCCCCN1C(=O)[C@@H]2C/C(=C\N(C)C)C(=O)N2C1N(C)C (stereo not given in full),Non-Toxic
2,O=C(NCc1ccc(Cl)cc1Cl)[C@@H]1CCC(=O)N1c1ccccc1,Non-Toxic
3,COc1ccc(CN2C(=O)[C@@H]3C/C(=C\N(C)C)C(=O)N3C2N(C)C)c(OC)c1 (stereo not given in full),Non-Toxic
4,O=C(NCCc1ccccc1)[C@@H]1CCC(=O)N1Cc1ccc(Br)cc1,Non-Toxic
